Converted amounts (≈) assume the structure as drawn. Where two headings read alike, the source gives them in different places.
Key:
Experiment in all cases: MIC, microdilution broth method (NCCLS)
Format in all cases: cell-based
S. pneumoniae ATCC49619 = conditions: Streptococcus pneumoniae, read-out: MIC Values, D: S. pneumoniae ATCC49619
Experimental: (§1) Minimal inhibitory concentration (MIC) has been an indicator of in vitro antibacterial activity widely used in the art. The in vitro antimicrobial activity of the compounds was determined by the microdilution broth method following the test method from the National Committee for Clinical Laboratory Standards (NCCLS). This method is described in the NCCLS Document M7-A4, Vol.17, No.2, “Methods for Dilution Antimicrobial Susceptibility Test for Bacteria that Grow Aerobically—Fourth Edition”, which is incorporated herein by reference.
(§2) In this method two-fold serial dilutions of drug in cation adjusted Mueller-Hinton broth are added to wells in microdilution trays. The test organisms are prepared by adjusting the turbidity of actively growing broth cultures so that the final concentration of test organism after it is added to the wells is approximately 5×10^4 CFU/well.
(§3) Following inoculation of the microdilution trays, the trays are incubated at 35 °C for 16-20 hours and then read. […] The amount of growth in the wells containing the test compound is compared with the amount of growth in the growth-control wells (no test compound) used in each tray. As set forth in Table 1, compounds of the present invention were tested against a variety of Gram positive and Gram negative pathogenic bacteria resulting in a range of activities depending on the organism tested.

E. faecalis ATCC29212 = conditions: Enterococcus faecalis, read-out: MIC Values, C: E. faecalis ATCC29212
Experimental: as §1, §2, §3

S. aureus ATCC29213 = conditions: Staphylococcus aureus, read-out: MIC Values, B: S. aureus ATCC29213
Experimental: as §1, §2, §3

[1] = Table 1, 6-Carbamoyl-3-Acyl Macrolide Derivatives
[2] = Table 2, 3,6-Dicarbamoyl Macrolide Derivatives
[3] = Table 3, 6-Carbonate Macrolide Derivatives

| SMILES | MIC (S. pneumoniae ATCC49619; [1]) [mg/L] | MIC (E. faecalis ATCC29212; [1]) [mg/L] | MIC (S. aureus ATCC29213; [1]) [mg/L] | MIC (S. pneumoniae ATCC49619; [2]) [mg/L] | MIC (E. faecalis ATCC29212; [2]) [mg/L] | MIC (S. aureus ATCC29213; [2]) [mg/L] | MIC (S. pneumoniae ATCC49619; [3]) [mg/L] | MIC (E. faecalis ATCC29212; [3]) [mg/L] | MIC (S. aureus ATCC29213; [3]) [mg/L] |
| --- | --- | --- | --- | --- | --- | --- | --- | --- | --- |
| CC[C@H]1OC(=O)[C@H](C)[C@@H](OC(=O)Cc2cccnc2)[C@H](C)[C@@H](O[C@@H]2O[C@H](C)C[C@H](N(C)C)[C@H]2O)[C@](C)(OC(=O)NC/C=C/c2cnc(C(C)(C)C)nc2)C[C@@H](C)C(=O)[C@H](C)[C@H]2NC(=O)O[C@@]21C [Compound 42] | 0.06 (≈ 0.064 µM) | 0.5 (≈ 0.534 µM) | 1 (≈ 1.07 µM) | – | – | – | – | – | – |
| CC[C@H]1OC(=O)[C@H](C)[C@@H](OC(=O)C(C)C)[C@H](C)[C@@H](O[C@@H]2O[C@H](C)C[C@H](N(C)C)[C@H]2O)[C@](C)(OC(=O)NC/C=C/C=C/c2cnc(C(C)C)nc2)C[C@@H](C)C(=O)[C@H](C)[C@H]2NC(=O)O[C@@]21C [Compound 44] | 0.25 (≈ 0.278 µM) | 2 (≈ 2.22 µM) | 2 (≈ 2.22 µM) | – | – | – | – | – | – |
| CC[C@H]1OC(=O)[C@H](C)[C@@H](OC(=O)C(C)C)[C@H](C)[C@@H](O[C@@H]2O[C@H](C)C[C@H](N(C)C)[C@H]2O)[C@](C)(OC(=O)NC/C=C/c2ccc(-c3cnccn3)cc2)C[C@@H](C)C(=O)[C@H](C)[C@H]2NC(=O)O[C@@]21C [Compound 45] | 0.06 (≈ 0.0661 µM) | 0.5 (≈ 0.551 µM) | 0.5 (≈ 0.551 µM) | – | – | – | – | – | – |
| CC[C@H]1OC(=O)[C@H](C)[C@@H](OC(=O)C(C)C)[C@H](C)[C@@H](O[C@@H]2O[C@H](C)C[C@H](N(C)C)[C@H]2O)[C@](C)(OC(=O)NC/C=C/c2ccc(-c3cccnn3)cc2)C[C@@H](C)C(=O)[C@H](C)[C@H]2NC(=O)O[C@@]21C [Compound 46] | 0.06 (≈ 0.0661 µM) | 0.12 (≈ 0.132 µM) | 0.5 (≈ 0.551 µM) | – | – | – | – | – | – |
| CC[C@H]1OC(=O)[C@H](C)[C@@H](OC(=O)C(C)C)[C@H](C)[C@@H](O[C@@H]2O[C@H](C)C[C@H](N(C)C)[C@H]2OC(C)=O)[C@](C)(OC(=O)NC/C=C/c2ccc(-n3cccn3)cc2)C[C@@H](C)C(=O)[C@H](C)[C@H]2NC(=O)O[C@@]21C [Compound 48] | 0.06 (≈ 0.064 µM) | 0.5 (≈ 0.533 µM) | 1 (≈ 1.07 µM) | – | – | – | – | – | – |
| CC[C@H]1OC(=O)[C@H](C)[C@@H](OC(=O)C(C)C)[C@H](C)[C@@H](O[C@@H]2O[C@H](C)C[C@H](N(C)C)[C@H]2O)[C@](C)(OC(=O)NC/C=C/c2ccc(-c3ccn(C)n3)cc2)C[C@@H](C)C(=O)[C@H](C)[C@H]2NC(=O)O[C@@]21C [Compound 49] | 0.06 (≈ 0.0659 µM) | 1 (≈ 1.1 µM) | 1 (≈ 1.1 µM) | – | – | – | – | – | – |
| CC[C@H]1OC(=O)[C@H](C)[C@@H](OC(=O)N(C)OC)[C@H](C)[C@@H](O[C@@H]2O[C@H](C)C[C@H](N(C)C)[C@H]2O)[C@](C)(OC(=O)NC/C=C/c2ccc(-c3ncccn3)cc2)C[C@@H](C)C(=O)[C@H](C)[C@H]2NC(=O)O[C@@]21C [Compound 68] | – | – | – | 0.06 (≈ 0.0649 µM) | 0.5 (≈ 0.54 µM) | 1 (≈ 1.08 µM) | – | – | – |
| CC[C@H]1OC(=O)[C@H](C)[C@@H](OC(=O)N(CC)CC)[C@H](C)[C@@H](O[C@@H]2O[C@H](C)C[C@H](N(C)C)[C@H]2O)[C@](C)(OC(=O)NC/C=C/c2ccc(-c3cnccn3)cc2)C[C@@H](C)C(=O)[C@H](C)[C@H]2NC(=O)O[C@@]21C [Compound 69] | – | – | – | 0.06 (≈ 0.064 µM) | 0.5 (≈ 0.534 µM) | 0.5 (≈ 0.534 µM) | – | – | – |
| CC[C@H]1OC(=O)[C@H](C)[C@@H](OC(=O)N(CC)CC)[C@H](C)[C@@H](O[C@@H]2O[C@H](C)C[C@H](N(C)C)[C@H]2O)[C@](C)(OC(=O)NC/C=C/c2ccc(-n3cccn3)cc2)C[C@@H](C)C(=O)[C@H](C)[C@H]2NC(=O)O[C@@]21C [Compound 70] | – | – | – | 0.06 (≈ 0.0649 µM) | 0.5 (≈ 0.54 µM) | 1 (≈ 1.08 µM) | – | – | – |
| CC[C@H]1OC(=O)[C@H](C)[C@@H](OC(=O)N(CC)CC)[C@H](C)[C@@H](O[C@@H]2O[C@H](C)C[C@H](N(C)C)[C@H]2O)[C@](C)(OC(=O)NC/C=C/c2ccc(-c3cccnn3)cc2)C[C@@H](C)C(=O)[C@H](C)[C@H]2NC(=O)O[C@@]21C [Compound 71] | – | – | – | 0.06 (≈ 0.064 µM) | 1 (≈ 1.07 µM) | 1 (≈ 1.07 µM) | – | – | – |
| CC[C@H]1OC(=O)[C@H](C)[C@@H](OC(=O)N(CC)CC)[C@H](C)[C@@H](O[C@@H]2O[C@H](C)C[C@H](N(C)C)[C@H]2O)[C@](C)(OC(=O)NC/C=C/c2ccc(-n3cncn3)cc2)C[C@@H](C)C(=O)[C@H](C)[C@H]2NC(=O)O[C@@]21C [Compound 72] | – | – | – | 0.06 (≈ 0.0648 µM) | 0.5 (≈ 0.54 µM) | 0.5 (≈ 0.54 µM) | – | – | – |
| CC[C@H]1OC(=O)[C@H](C)[C@@H](OC(=O)N(CC)CC)[C@H](C)[C@@H](O[C@@H]2O[C@H](C)C[C@H](N(C)C)[C@H]2O)[C@](C)(OC(=O)NC/C=C/c2ccc(-c3ccn(C)n3)cc2)C[C@@H](C)C(=O)[C@H](C)[C@H]2NC(=O)O[C@@]21C [Compound 73] | – | – | – | 0.12 (≈ 0.128 µM) | 0.5 (≈ 0.532 µM) | 1 (≈ 1.06 µM) | – | – | – |
| CC[C@H]1OC(=O)[C@H](C)[C@@H](OC(=O)N(CC)CC)[C@H](C)[C@@H](O[C@@H]2O[C@H](C)C[C@H](N(C)C)[C@H]2OC(C)=O)[C@](C)(OC(=O)OC/C=C/c2ccc(-c3ncccn3)cc2)C[C@@H](C)C(=O)[C@H](C)[C@H]2NC(=O)O[C@@]21C [Compound 75] | – | – | – | – | – | – | 0.25 (≈ 0.255 µM) | 0.5 (≈ 0.51 µM) | 1 (≈ 1.02 µM) |
| CC[C@H]1OC(=O)[C@H](C)[C@@H](OC(=O)Cc2cccnc2)[C@H](C)[C@@H](O[C@@H]2O[C@H](C)C[C@H](N(C)C)[C@H]2O)[C@](C)(OC(=O)OC/C=C/c2ccc(-c3cnccn3)cc2)C[C@@H](C)C(=O)[C@H](C)[C@H]2NC(=O)O[C@@]21C [Compound 77] | – | – | – | – | – | – | 0.06 (≈ 0.0626 µM) | 0.5 (≈ 0.522 µM) | 1 (≈ 1.04 µM) |
| CC[C@H]1OC(=O)[C@H](C)[C@@H](OC(=O)Cc2cccnc2)[C@H](C)[C@@H](O[C@@H]2O[C@H](C)C[C@H](N(C)C)[C@H]2O)[C@](C)(OC(=O)OC/C=C/c2ccc(-c3ncccn3)cc2)C[C@@H](C)C(=O)[C@H](C)[C@H]2NC(=O)O[C@@]21C [Compound 78] | – | – | – | – | – | – | 0.03 (≈ 0.0313 µM) | 0.25 (≈ 0.261 µM) | 0.25 (≈ 0.261 µM) |
| CC[C@H]1OC(=O)[C@H](C)[C@@H](OC(=O)Cc2cccnc2)[C@H](C)[C@@H](O[C@@H]2O[C@H](C)C[C@H](N(C)C)[C@H]2O)[C@](C)(OC(=O)OC/C=C/c2ccc(-c3cccnn3)cc2)C[C@@H](C)C(=O)[C@H](C)[C@H]2NC(=O)O[C@@]21C [Compound 79, 3-Pyridineacetic acid, (3aS,4R,7R,8S,9S,10R,11R,13R,15R,15aR)-4-ethyltetradecahydro-3a,7,9,11,13,15-hexamethyl-2,6,14-trioxo-11-[[[[(2E)-3-[4-(3-pyridazinyl)phenyl]-2-propenyl]oxy]carbonyl]oxy]-10-[[3,4,6-trideoxy-3-(dimethylamino)-β-D-xylo-hexopyranosyl]oxy]-2H-oxacyclotetradecino[4,3-d]oxazol-8-yl ester] | – | – | – | – | – | – | 0.06 (≈ 0.0626 µM) | 0.5 (≈ 0.522 µM) | 1 (≈ 1.04 µM) |
| CC[C@H]1OC(=O)[C@H](C)[C@@H](OC(=O)Cc2cccnc2)[C@H](C)[C@@H](O[C@@H]2O[C@H](C)C[C@H](N(C)C)[C@H]2O)[C@](C)(OC(=O)OC/C=C/c2cnc3ccccc3c2)C[C@@H](C)C(=O)[C@H](C)[C@H]2NC(=O)O[C@@]21C [Compound 80] | – | – | – | – | – | – | 0.06 (≈ 0.0644 µM) | 0.5 (≈ 0.537 µM) | 1 (≈ 1.07 µM) |
| CC[C@H]1OC(=O)[C@H](C)[C@@H](OC(=O)Cc2cccnc2)[C@H](C)[C@@H](O[C@@H]2O[C@H](C)C[C@H](N(C)C)[C@H]2O)[C@](C)(OC(=O)OCC#Cc2ccc(-c3ncccn3)cc2)C[C@@H](C)C(=O)[C@H](C)[C@H]2NC(=O)O[C@@]21C [Compound 81] | – | – | – | – | – | – | 0.06 (≈ 0.0628 µM) | 0.25 (≈ 0.261 µM) | 0.5 (≈ 0.523 µM) |
| CC[C@H]1OC(=O)[C@H](C)[C@@H](OC(=O)C(C)C)[C@H](C)[C@@H](O[C@@H]2O[C@H](C)C[C@H](N(C)C)[C@H]2O)[C@](C)(OC(=O)OC/C=C/c2ccc(-c3cccnn3)cc2)C[C@@H](C)C(=O)[C@H](C)[C@H]2NC(=O)O[C@@]21C [Compound 82] | – | – | – | – | – | – | 0.06 (≈ 0.066 µM) | 0.5 (≈ 0.55 µM) | 0.5 (≈ 0.55 µM) |
| CC[C@H]1OC(=O)[C@H](C)[C@@H](OC(=O)N(CC)CC)[C@H](C)[C@@H](O[C@@H]2O[C@H](C)C[C@H](N(C)C)[C@H]2O)[C@](C)(OC(=O)OC/C=C/c2ccc(-c3cccnn3)cc2)C[C@@H](C)C(=O)[C@H](C)[C@H]2NC(=O)O[C@@]21C [Compound 83, Carbonic acid, (3aS,4R,7R,8S,9S,10R,11R,13R,15R,15aR)-8-[[(diethylamino)carbonyl]oxy]-4-ethyltetradecahydro-3a,7,9,11,13,15-hexamethyl-2,6,14-trioxo-10-[[3,4,6-trideoxy-3-(dimethylamino)-β-D-xylo-hexopyranosyl]oxy]-2H-oxacyclotetradecino[4,3-d]oxazol-11-yl(2E)-3-[4-(3-pyridazinyl)phenyl]-2-propenyl ester] | – | – | – | – | – | – | 0.06 (≈ 0.064 µM) | 0.5 (≈ 0.533 µM) | 1 (≈ 1.07 µM) |
